From a melting point compilation (Tetko et al.; mined from patent text by program, amines drawn as free bases though some values may be those of a salt)

Row | Compound | melting point
1 | O=C(Nc1ccc2c(c1)CCN(C(=O)Nc1ccc(OCC(O)CO)cc1Cl)C2)Nc1ccccc1F (centres undefined) | 164 to 167 °C
2 | CC(C)(C)[NH+]([O-])C(=O)Nc1ccnc(-c2ccncc2)n1 (centres undefined) | 125 to 150 °C
3 | CCCC(C)(c1ccc(O)cc1)c1ccc(O)cc1 | 151 to 152 °C
4 | COc1ccc(CCc2nc(C(N)=O)c[nH]2)cc1 | 218 to 219 °C
5 | Cc1cc2c(Cl)c([N+](=O)[O-])cnc2s1 | 96 to 98 °C
6 | CCOC(=O)C(C)(C)Oc1cc2c(cc1C)OC1(CC(C)(C)c3cc(O)c(C)cc3O1)CC2(C)C (single isomer, unassigned; (-)) | 165 to 166 °C
7 | NNC(=O)c1ccccc1-c1ccc(N)cc1 | 135 to 137 °C
8 | C=CCOc1cc([N+](=O)[O-])ccc1[N+](=O)[O-] | 66.5 to 68 °C
9 | Clc1nc(NCc2ccc(-c3ccccn3)cc2)c2[nH]cnc2n1 | > 250 °C
10 | COC(=O)Cc1cn(C(c2ccccc2)(c2ccccc2)c2ccccc2)cn1 | 122 to 125 °C
11 | O=C(Cc1ccc(F)cc1)c1ccc(F)cc1 | 91 to 93 °C
12 | CCOC(=O)c1cc(CBr)ccc1S(=O)(=O)NC(=O)Nc1nc(OC)cc(OC)n1 | 195 to 197 °C
13 | CC(=O)NS(=O)(=O)c1cccc(NC(=O)NC2N=C(c3ccccc3F)c3ccccc3N(CC(=O)N3CC4CCC(CC4)C3)C2=O)c1 (racemic) | 193 to 203 °C
14 | Cc1cccc(C)c1CNc1cc(C(=O)O)cc2c1nc(C)n2C | 315 to 318 °C
15 | C=Cc1ccc2nc(Cl)c(S(N)(=O)=O)n2n1 | 229 to 233 °C
16 | COC(=O)c1ccc2ccc(C#N)cc2c1 | 136 °C
17 | CC(C)Cn1nnc2c3ncnc-3c3ccncc3n21 | 181 to 182 °C
18 | N=C(N)NCCc1ccc(OCCC2Oc3ccccc3N(Cc3cccc(Cl)c3)C2=O)cc1 (centres undefined) | 90 to 101 °C
19 | CCCCNc1c([N+](=O)[O-])cc(C)cc1[N+](=O)[O-] | 52 °C
20 | CC(C)(C)OCC1CN(c2ccc3cc(O)ccc3c2)C(=O)O1 (centres undefined) | 177 to 178 °C
21 | COc1ccc(C2=NN(CCCCOc3ccc(C(=O)O)cc3)C(=O)[C@H]3CC=CC[C@@H]23)cc1Cl (relative stereo) | 169 to 171 °C
22 | CC(=O)OCC(=O)C1(O)C(C)CC2C3CCC4CC(=O)CCC4(C)C3CCC21C (centres undefined) | 125 °C
23 | CCn1cc(C=CC(N)=O)c([N+](=O)[O-])n1 | 210 to 212 °C
24 | COc1ccc(C(=O)Cc2c(Cl)cncc2Cl)c2c1OCCO2 | 158 to 160 °C
25 | CC1SCN(CCCCN2CCN(c3nsc4ccccc34)CC2)C1=O (centres undefined) | 113 to 115 °C

Row | Compound | melting point
26 | COc1ccc2nc(-c3cc(C(F)(F)F)nn3-c3ccc(S(N)(=O)=O)cc3)sc2c1 | 236 to 237 °C
27 | COC(=O)C(=O)c1cc(OC)c(O)c([N+](=O)[O-])c1 | 155 to 157 °C
28 | CCCCCCn1ccc(NC(C)=O)nc1=O | 129 to 130 °C
29 | CC(Cc1cccc([N+](=O)[O-])c1)NC=O (centres undefined) | 99 to 100 °C
30 | CC(=O)Oc1ccc(N2CCN(C(C)=O)CC2)c(Br)c1 | 75 °C
31 | CCOC(=O)C1=C[C@H](c2ccc(C)cc2)[C@H](CO[Si](C)(C)C(C)(C)C)C(=O)O1 | 60 to 61 °C
32 | Cc1cc(Nc2ccnc(Nc3ccc(S(=O)(=O)N(C)C4CCN(Cc5cncs5)CC4)cc3)n2)ccc1F | 196 to 197 °C
33 | O=C(c1ccc([N+](=O)[O-])c([N+](=O)[O-])c1)N1CCOCC1 | 136 to 137 °C
34 | O=Cc1cccn1-c1ccc(F)cc1 | 82 to 83 °C
35 | COc1ccc2c(c1N)CN(S(C)(=O)=O)CC(=O)N2 | 232 to 233 °C
36 | CCCOc1ccc(Nc2c([N+](=O)[O-])ccc(Cl)c2C(=O)O)cc1 | 194 to 196 °C
37 | Cc1ccc(C[C@@H](NC(=O)c2cccc3c2C=CCCC3)[C@@H](O)c2ccc(F)cc2)cc1OC(F)(F)C(F)F (racemic) | 168 to 169 °C
38 | ClCCCn1cc2cc(OCc3ccccc3)ccc2n1 | 97 to 98 °C
39 | O=C1NCCc2c1cc1n2CCCC1 | 195 to 197 °C
40 | COC(=O)CCCC#Cc1cc(Cl)ccc1NS(=O)(=O)c1cccc2ccccc12 | 93 to 95 °C
41 | CCCCCC(NC(C)C)=C1C(=O)ON=C1C | 99 to 101 °C
42 | CC(COc1ccc(CC2SC(=O)NC2=O)cc1)NCC(O)CN(C)c1ccccc1 (centres undefined) | 115 to 125 °C
43 | CCCCCOCCCCCCCCCCCCBr | 25 °C
44 | O=C1Cc2cc(Br)ccc2Oc2cc(O)cc(O)c21 | 112 to 117 °C
45 | Cc1cc2ccccc2n1Nc1ccncc1 | 75 to 78 °C
46 | Cc1nc2cc3c(cc2c(=O)[nH]1)C(N(C)c1ccc(C(=O)NC(CCc2nnn[nH]2)C(=O)O)c(F)c1)CC3 (mixture of isomers) | 203 to 205 °C
47 | CCOC(=O)C(=CNC1CC1)C(=O)c1cc(Cl)c(F)c(Cl)c1F | 71 to 74 °C
48 | COc1cc(C#N)ccc1-c1nc2cc3c(cc2[nH]1)NC(=O)C3(C)C | 304 to 312 °C
49 | COc1cc(-n2cnc3cc(-c4ccc(Cl)cc4)sc3c2=O)ccc1OCC1(O)CC(F)(F)C1 | 198 to 199 °C
